Test results as given in patent US11951094B2, “TLR2 modulator compounds, pharmaceutical compositions and uses thereof” (Axial Therapeutics, Inc., priority 2020, dated 2024).

Biological target: TLR2 (Homo sapiens, UniProt O60603)
Experiment: TLR2 agonist screening assay, HEK-Blue TLR2 reporter cell line (NF-kB-driven SEAP, absorbance at 600 nm)
Format: cell-based
Design: host or cells: HEK-293 (HEK-Blue TLR2 reporter cell line)
Conditions: HEK-Blue TLR2 reporter cells, agonist mode
Method in brief: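 TLR2 engagement is scored through NF-kB-induced secreted alkaline phosphatase in HEK-293 cells, detected by substrate colour change at 600 nm after overnight compound treatment at 1% final DMSO. Potency is expressed as EC50.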

Sequence of TLR2 (O60603 21-784): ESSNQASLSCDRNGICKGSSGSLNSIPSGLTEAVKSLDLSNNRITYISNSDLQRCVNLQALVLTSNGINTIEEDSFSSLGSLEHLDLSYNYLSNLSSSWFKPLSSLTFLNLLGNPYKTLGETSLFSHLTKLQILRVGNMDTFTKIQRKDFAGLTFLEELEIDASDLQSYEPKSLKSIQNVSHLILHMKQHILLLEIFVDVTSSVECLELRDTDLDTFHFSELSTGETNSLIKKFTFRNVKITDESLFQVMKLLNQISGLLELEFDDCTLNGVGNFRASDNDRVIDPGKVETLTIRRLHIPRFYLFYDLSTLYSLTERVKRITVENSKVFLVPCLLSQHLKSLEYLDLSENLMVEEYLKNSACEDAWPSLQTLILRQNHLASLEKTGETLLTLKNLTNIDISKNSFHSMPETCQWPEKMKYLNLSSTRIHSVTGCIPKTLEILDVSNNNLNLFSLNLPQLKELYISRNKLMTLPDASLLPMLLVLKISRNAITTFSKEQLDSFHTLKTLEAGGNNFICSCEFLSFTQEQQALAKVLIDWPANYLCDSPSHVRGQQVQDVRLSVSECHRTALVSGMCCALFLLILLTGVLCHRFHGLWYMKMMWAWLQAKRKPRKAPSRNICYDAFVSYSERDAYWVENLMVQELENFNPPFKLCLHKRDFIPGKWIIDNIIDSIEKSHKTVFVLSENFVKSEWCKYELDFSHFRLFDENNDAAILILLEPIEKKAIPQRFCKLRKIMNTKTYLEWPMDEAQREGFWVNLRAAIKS

SMILES	EC50 (average of all runs (Table 3))	EC50 (average of all runs (Table 4))
CCCCCCCC(=O)N1CCN(C(=O)c2ccc(C(=O)N3C[C@@H](C(=O)N[C@H]4C[C@@H]4c4ccccc4)[C@H](C(=O)N[C@H]4C[C@@H]4c4ccccc4)C3)cc2)CC1C(=O)NCC (stereo partly drawn) [Compound 048, (3S,4S)-1-(4-(3-(ethylcarbamoyl)-4-octanoylpiperazine-1-carbonyl)benzoyl)-N3,N4-bis ((1S,2R)-2-phenylcyclopropyl) pyrrolidine-3,4-dicarboxamide]	351 to 1000 nM	
O=C(N[C@H]1C[C@@H]1c1ccccc1)[C@@H]1CN(C(=O)c2ccc(C(=O)N3C[C@@H](C(=O)N[C@H]4C[C@@H]4c4cccnc4)[C@H](C(=O)N[C@H]4C[C@@H]4c4cccnc4)C3)cc2)C[C@H]1C(=O)N[C@H]1C[C@@H]1c1ccccc1 (single isomer, unassigned) [Compound 094, (3S,4S)-1-(4-((3S,4S)-3,4-bis(((1S*,2R*)-2-(pyridin-3-yl)cyclopropyl)carbamoyl)pyrrolidine-1-carbonyl)benzoyl)-N3,N4-bis((1S,2R)-2-phenylcyclopropyl) pyrrolidine-3,4-dicarboxamide]		51 to 350 nM
CCCCCCCCCCCCCCNC(=O)C1CC(=O)N(Cc2ccc(C(=O)N3C[C@@H](C(=O)N[C@H]4C[C@@H]4c4ccccc4)[C@H](C(=O)N[C@H]4C[C@@H]4c4ccccc4)C3)cc2)C1 (stereo partly drawn) [Compound 100, (3S,4S)-1-(4-((2-oxo-4-(tetradecylcarbamoyl)pyrrolidin-1-yl)methyl)benzoyl)-N3,N4-bis((1S,2R)-2-phenylcyclopropyl)pyrrolidine-3,4-dicarboxamide]		> 1000 nM
CCCCCCNC(=O)C[C@H](NC(=O)c1ccc(C(=O)N2C[C@@H](C(=O)N[C@H]3C[C@@H]3c3ccccc3)[C@H](C(=O)N[C@H]3C[C@@H]3c3ccccc3)C2)cc1)C(=O)NCCCCCC [Compound 014]	> 1000 nM	
CCCCCCCCN1CCN(C(=O)c2ccc(C(=O)N3C[C@@H](C(=O)N[C@H]4C[C@@H]4c4ccccc4)[C@H](C(=O)N[C@H]4C[C@@H]4c4ccccc4)C3)cc2)C[C@H]1C(=O)NCCCCCC [Compound 031]	> 1000 nM	
O=C(N[C@H]1C[C@@H]1c1ccccc1)[C@@H]1CN(C(=O)c2cccc(C(=O)N3C[C@@H](C(=O)N[C@H]4C[C@@H]4c4ccccc4)[C@H](C(=O)N[C@H]4C[C@@H]4c4ccccc4)C3)c2)C[C@H]1C(=O)N[C@H]1C[C@@H]1c1ccccc1 (racemic) [Compound 001]	> 1000 nM	
CCCCCCCCCCCCCCS(=O)(=O)N[C@@H]1CCN(C(=O)c2ccc(C(=O)N3C[C@@H](C(=O)N[C@H]4C[C@@H]4c4ccccc4)[C@H](C(=O)N[C@H]4C[C@@H]4c4ccccc4)C3)cc2)C1 [Compound 083, (3S,4S)—N3,N4-bis((1S,2R)-2-phenylcyclopropyl)-1-(4-((R)-3-(tetradecylsulfonamido)pyrrolidine-1-carbonyl)benzoyl)pyrrolidine-3,4-dicarboxamide]		> 1000 nM
CCCCCCCCCCCCCCNC(=O)CC(C)(C)NC(=O)c1ccc(C(=O)N2C[C@@H](C(=O)N[C@H]3C[C@@H]3c3ccccc3)[C@H](C(=O)N[C@H]3C[C@@H]3c3ccccc3)C2)cc1 [Compound 011]	> 1000 nM	
CCCCCCCC(=O)N1CCN(C(=O)c2ccc(C(=O)N3C[C@@H](C(=O)N[C@H]4C[C@@H]4c4ccccc4)[C@H](C(=O)N[C@H]4C[C@@H]4c4ccccc4)C3)cc2)CC1C(=O)NCCCCCC (stereo partly drawn) [Compound 019, (3S,4S)-1-(4-(3-(hexylcarbamoyl)-4-octanoylpiperazine-1-carbonyl)benzoyl)-N3,N4-bis((1S,2R)-2-phenylcyclopropyl)pyrrolidine-3,4-dicarboxamide]	0.1 to 50 nM	
CCCCCCCO[C@H]1CN(C(=O)c2ccc(C(=O)N3C[C@@H](C(=O)N[C@H]4C[C@@H]4c4ccccc4)[C@H](C(=O)N[C@H]4C[C@@H]4c4ccccc4)C3)cc2)C[C@H]1C(=O)NCCCCCC (single isomer, unassigned) [Compound 115, (3S,4S)-1-(4-((3R*,4R*)-3-(heptyloxy)-4-(hexylcarbamoyl)pyrrolidine-1-carbonyl)benzoyl)-N3,N4-bis((1S,2R)-2-phenylcyclopropyl)pyrrolidine-3,4-dicarboxamide]		> 1000 nM
CCCCCCCCCCCCCCNC(=O)[C@@H]1CN(C(=O)c2ccc(C(=O)N3C[C@@H](C(=O)N[C@H]4C[C@@H]4c4ccccc4)[C@H](C(=O)N[C@H]4C[C@@H]4c4ccccc4)C3)cc2)C[C@H]1N(C)[C@H](C)c1ccccc1 [Compound 090, (3S,4S)-1-(4-((3S,4R)-3-(methyl((R)-1-phenylethyl)amino)-4-(tetradecylcarbamoyl)pyrrolidine-1-carbonyl)benzoyl)-N3,N4-bis((1S,2R)-2-phenylcyclopropyl)pyrrolidine-3,4-dicarboxamide]		> 1000 nM

Next, values leading:

EC50 (average of all runs (Table 3))	EC50 (average of all runs (Table 4))	SMILES
	0.1 to 50 nM	CCCCCCCCCCCCCCCN1CCCC(NC(=O)c2ccc(C(=O)N3C[C@@H](C(=O)N[C@H]4C[C@@H]4c4ccccc4)[C@H](C(=O)N[C@H]4C[C@@H]4c4ccccc4)C3)cc2)C1=O (some centres unmarked) [Compound 136]
	> 1000 nM	CCCCCCCCCCCCCCC(=O)N1CCC[C@@H](NC(=O)c2ccc(C(=O)N3C[C@@H](C(=O)N[C@H]4C[C@@H]4c4ccccc4)[C@H](C(=O)N[C@H]4C[C@@H]4c4ccccc4)C3)cc2)C1 [Compound 153, (3S,4S)-1-(4-(((R)-1-pentadecanoylpiperidin-3-yl)carbamoyl)benzoyl)-N3,N4-bis((1S,2R)-2-phenylcyclopropyl)pyrrolidine-3,4-dicarboxamide]
	> 1000 nM	CCCCCCCCCCCCCCNC(=O)[C@@H]1CN(C(=O)c2ccc(C(=O)N3C[C@@H](C(=O)N[C@H]4C[C@@H]4c4ccccc4)[C@H](C(=O)N[C@H]4C[C@@H]4c4ccccc4)C3)cc2)CCO1 [Compound 151, (3S,4S)—N3,N4-bis((1S,2R)-2-phenylcyclopropyl)-1-(4-((S)-2-(tetradecylcarbamoyl)morpholine-4-carbonyl)benzoyl)pyrrolidine-3,4-dicarboxamide]
	> 1000 nM	CCCCCCCCCCCCCCC(=O)N1CCC[C@H](NC(=O)c2ccc(C(=O)N3C[C@@H](C(=O)N[C@H]4C[C@@H]4c4ccccc4)[C@H](C(=O)N[C@H]4C[C@@H]4c4ccccc4)C3)cc2)C1 [Compound 125, (3S,4S)-1-(4-(((S)-1-pentadecanoylpiperidin-3-yl)carbamoyl)benzoyl)-N3,N4-bis((1S,2R)-2-phenylcyclopropyl)pyrrolidine-3,4-dicarboxamide]
	51 to 350 nM	CCCCCCC(=O)N[C@@H](CNC(=O)c1ccc(C(=O)N2C[C@@H](C(=O)N[C@H]3C[C@@H]3c3ccccc3)[C@H](C(=O)N[C@H]3C[C@@H]3c3ccccc3)C2)cc1)C(=O)NCCc1ccc(F)cc1 [Compound 129, (3S,4S)-1-(4-(((S)-3-((4-fluorophenethyl)amino)-2-heptanamido-3-oxopropyl)carbamoyl)benzoyl)-N3,N4-bis((1S,2R)-2-phenylcyclopropyl)pyrrolidine-3,4-dicarboxamide]
	0.1 to 50 nM	CCCCCCCCN1C(=O)N(Cc2ccc(C(=O)N3C[C@@H](C(=O)N[C@H]4C[C@@H]4c4ccccc4)[C@H](C(=O)N[C@H]4C[C@@H]4c4ccccc4)C3)cc2)C[C@H]1C(=O)NCCCCCC [Compound 167, (3S,4S)-1-(4-(((S)-4-(hexylcarbamoyl)-3-octyl-2-oxoimidazolidin-1-yl)methyl)benzoyl)-N3,N4-bis((1S,2R)-2-phenylcyclopropyl)pyrrolidine-3,4-dicarboxamide]
	> 1000 nM	CCCCCCCC(=O)N1CCN(S(=O)(=O)c2cccc(C(=O)N3C[C@@H](C(=O)N[C@H]4C[C@@H]4c4ccccc4)[C@H](C(=O)N[C@H]4C[C@@H]4c4ccccc4)C3)c2)C[C@H]1C(=O)NCCCCCC [Compound 170, (3S,4S)-1-(3-(((S)-3-(hexylcarbamoyl)-4-octanoylpiperazin-1-yl)sulfonyl)benzoyl)-N3,N4-bis((1S,2R)-2-phenylcyclopropyl)pyrrolidine-3,4-dicarboxamide]
	> 1000 nM	CCCCCCCCCCCCCCNC(=O)C[C@@H]1CCCN1C(=O)c1ccc(C(=O)N2C[C@@H](C(=O)N[C@H]3C[C@@H]3c3ccccc3)[C@H](C(=O)N[C@H]3C[C@@H]3c3ccccc3)C2)cc1 [Compound 135, (3S,4S)-1-(4-((S)-2-(2-oxo-2-(tetradecylamino)ethyl)pyrrolidine-1-carbonyl)benzoyl)-N3,N4-bis((1S,2R)-2-phenylcyclopropyl) pyrrolidine-3,4-dicarboxamide]
	> 1000 nM	CCCCCCCCCCCCCNC(=O)[C@@H]1CN(C(=O)c2ccc(C(=O)N3C[C@@H](C(=O)N[C@H]4C[C@@H]4c4ccccc4)[C@H](C(=O)N[C@H]4C[C@@H]4c4ccccc4)C3)cc2)CCN1C(C)=O [Compound 254, (3S,4S)-1-(4-((S)-4-acetyl-3-(tridecylcarbamoyl)piperazine-1-carbonyl)benzoyl)-N3,N4-bis((1S,2R)-2-phenylcyclopropyl)pyrrolidine-3,4-dicarboxamide]
	351 to 1000 nM	CCCCCCCC(=O)N1CCCN(C(=O)c2cccc(C(=O)N3C[C@@H](C(=O)N[C@H]4C[C@@H]4c4ccccc4)[C@H](C(=O)N[C@H]4C[C@@H]4c4ccccc4)C3)c2)C[C@@H]1C(=O)NCCCCCC (single isomer, unassigned) [Compound 191]
	351 to 1000 nM	CCCCCCCCCCCCCCOC(=O)N[C@H]1CN(C(=O)c2ccc(C(=O)N3C[C@@H](C(=O)N[C@H]4C[C@@H]4c4ccccc4)[C@H](C(=O)N[C@H]4C[C@@H]4c4ccccc4)C3)cc2)C[C@@H]1OC [Compound 218, Tetradecyl ((3S,4S)-1-(4-((3S,4S)-3,4-bis(((1S,2R)-2-phenylcyclopropyl)carbamoyl)pyrrolidine-1-carbonyl)benzoyl)-4-methoxypyrrolidin-3-yl)carbamate]
	351 to 1000 nM	CCCCCCCCCC(=O)N[C@@H](Cc1nnc(-c2ccc(C(=O)N3C[C@@H](C(=O)N[C@H]4C[C@@H]4c4ccccc4)[C@H](C(=O)N[C@H]4C[C@@H]4c4ccccc4)C3)cc2)o1)C(=O)NCCCCCC [Compound 259, (3S,4S)-1-(4-(5-((S)-2-decanamido-3-(hexylamino)-3-oxopropyl)-1,3,4-oxadiazol-2-yl)benzoyl)-N3,N4-bis((1S,2R)-2-phenylcyclopropyl)pyrrolidine-3,4-dicarboxamide]
